The record followed here is US20120172503A1, “AMORPHOUS SOLID MODIFICATION OF BIS(2,4-DICUMYLPHENYL) PENTAERYTHRITOL DIPHOSPHITE” (priority 2002, published 2012).

The data set in a line: Dissolving rate and solubility in organic materials versus crystalline form. The settings on record: in polymers and lubricants; compared to the prior art crystalline form.

For the substance “bis(2,4-dicumylphenyl)pentaerythritol diphosphite [Example 1]”, the “rate of dissolving in organic materials” value is reported as “faster rate of dissolving” and the “solubility in organic materials” value is on record as “better solubility”.
